Patent publication US8575193B2, “N-substituted tetrahydroisoquinoline/isoindoline hydroxamic acid compounds” (4SC AG, priority 2008, dated 2013)
Structures can show the parent of a compound that is named as a salt. Values belong to the compound of their own block, whether it stands above or below them.

Columns and labels:
rHDAC1 = target: T1, rHDAC1 (Homo sapiens, UniProt Q13547); assay: rHDAC1 enzymatic assay (recombinant FLAG-HDAC1); format: biochemical; conditions: FLAG-HDAC1 from HEK293; 6 μM Ac-NH-GGK(Ac)-AMC, 3 h at 30° C.; read-out: rHDAC1 [pIC50] (converted)
T1 construct: FLAG; made in house
From the text: (§1) Human HDAC1 and HDAC6 fused with the FLAG epitope are stably expressed in HEK293 cells while human HDAC3 and HDAC8 fused with the FLAG epitope are overexpressed in baculo-virus infected insect (Sf21) cells. To ensure stability of FLAG-HDAC3 the SMRT protein is co-expressed in the corresponding insect cells. […] FLAG-HDAC3 and FLAG-HDAC8 are also purified by M2-agarose affinity chromatography after mass cultivation of the insect cells and cell lysis.
(§2) The HDAC enzyme activity assay is done as described by Wegener et al. (Chem. & Biol. 10, 61-68, 2003). Briefly 40 μl of a 1:100 dilution (=0.4 μl) nuclear HeLa extract (mixture of class I and II HDACs), 29 μl enzyme buffer (15 mM Tris HCl pH 8.1, 0.25 mM EDTA, 250 mM NaCl, 10% v:v glycerol) and 1 μl test compound are added to a well of a 96 well microtiter plate and reaction started by addition of 3 μl substrate (Ac-NH-GGK(Ac)-AMC; final concentration 25 μM and final volume […]). […] After incubation at room temperature for further 40 min, fluorescence is measured using a Wallac Victor 1420 multilabel counter (Ex 355 nm, Em 460 nm) for quantification of AMC (7-amino-4-methylcoumarin) generated by trypsine cleavage of the deacetylated peptide. […] The corresponding pIC50 values of the compounds for HDAC inhibitory activity are determined from the concentration-effect curves by means of non-linear regression (Graphpad Prism software).
(§3) The HDAC1, HDAC3 and HDAC6 enzymatic assays are done with slight modifications with recombinant FLAG-HDAC1 and FLAG-HDAC6 proteins isolated from HEK293 cell lysates or recombinant FLAG-HDAC3 isolated from insect cells, respectively. The HDAC8 enzymatic assay using recombinant FLAG-HDAC8 isolated from insect cells is done with a different substrate. About 4.5 ng/well FLAG-HDAC1 and 3.1 ng/well FLAG-HDAC6 (dependent on batches and specific activity) are incubated with 6 μM or 10 μM Ac-NH-GGK(Ac)-AMC substrate, respectively, for 3 h at 30° C. About 1.7 ng/well FLAG-HDAC3 is incubated with 6 μM Ac-NH-GGK(Ac)-AMC substrate for 2 h at 30° C., while approximately 130 ng/well FLAG-HDAC8 is incubated with 50 μM Ac-RHK(Ac)K(Ac)-AMC substrate for 3 h at 30° C. Termination of the reaction and all further steps are done as described for HeLa cell nuclear extracts as a source for HDAC enzymatic activity. The corresponding pIC50 values of the compounds for HDAC1, HDAC3, HDAC6 and HDAC8 inhibitory activity are determined from the concentration-effect curves by means of non-linear regression.

rHDAC6 = target: T2, rHDAC6 (Homo sapiens, UniProt Q9UBN7); assay: rHDAC6 enzymatic assay (recombinant FLAG-HDAC6); format: biochemical; conditions: FLAG-HDAC6 from HEK293; 10 μM Ac-NH-GGK(Ac)-AMC, 3 h at 30° C.; read-out: rHDAC6 [pIC50] (converted)
T2 construct: FLAG; made in house
T2 sequence (Q9UBN7 1-1215): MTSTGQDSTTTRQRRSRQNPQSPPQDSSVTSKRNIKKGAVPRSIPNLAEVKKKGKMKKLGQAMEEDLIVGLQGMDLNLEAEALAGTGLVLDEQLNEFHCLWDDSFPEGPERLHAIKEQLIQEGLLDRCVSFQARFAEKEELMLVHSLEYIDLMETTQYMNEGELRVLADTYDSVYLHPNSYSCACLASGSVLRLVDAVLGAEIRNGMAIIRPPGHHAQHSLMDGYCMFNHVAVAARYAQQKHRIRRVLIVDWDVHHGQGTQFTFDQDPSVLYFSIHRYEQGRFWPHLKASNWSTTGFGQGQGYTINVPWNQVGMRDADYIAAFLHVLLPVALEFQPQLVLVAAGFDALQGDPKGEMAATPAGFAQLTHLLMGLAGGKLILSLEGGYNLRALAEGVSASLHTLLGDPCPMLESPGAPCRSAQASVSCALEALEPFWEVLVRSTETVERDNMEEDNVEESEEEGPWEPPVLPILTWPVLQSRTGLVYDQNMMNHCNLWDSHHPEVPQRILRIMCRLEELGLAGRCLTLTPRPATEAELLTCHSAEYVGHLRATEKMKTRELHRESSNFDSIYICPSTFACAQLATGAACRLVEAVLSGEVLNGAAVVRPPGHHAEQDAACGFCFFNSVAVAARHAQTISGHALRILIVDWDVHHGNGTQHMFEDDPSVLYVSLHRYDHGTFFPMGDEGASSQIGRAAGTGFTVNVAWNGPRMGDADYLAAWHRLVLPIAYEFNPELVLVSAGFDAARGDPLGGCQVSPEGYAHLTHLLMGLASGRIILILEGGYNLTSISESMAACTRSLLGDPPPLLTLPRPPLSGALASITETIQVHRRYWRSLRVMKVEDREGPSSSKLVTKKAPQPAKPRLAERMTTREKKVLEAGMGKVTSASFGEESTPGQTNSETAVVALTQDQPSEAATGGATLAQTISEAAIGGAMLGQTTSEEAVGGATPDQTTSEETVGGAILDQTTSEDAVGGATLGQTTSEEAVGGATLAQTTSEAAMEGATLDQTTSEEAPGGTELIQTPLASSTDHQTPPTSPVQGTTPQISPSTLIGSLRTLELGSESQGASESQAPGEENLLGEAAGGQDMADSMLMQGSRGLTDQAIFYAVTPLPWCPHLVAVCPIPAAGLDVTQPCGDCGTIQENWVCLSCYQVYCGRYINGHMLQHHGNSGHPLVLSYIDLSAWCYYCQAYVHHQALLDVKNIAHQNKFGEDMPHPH
From the text: as §1, §2, §3

[1] = Cellular cytotoxicity assay (Alamar Blue/Resazurin), A549; format: cell-based; conditions: human, A549 cells; A549, 72 hours incubation, Resazurin; read-out: A549 Cytotoxicity [pIC50] (converted)
Experimental: (§4) The anti-proliferative activity of the compounds as described herein, is evaluated with various solid and hematological cancer cell lines using the Alamar Blue (Resazurin) cell viability assay (O'Brien et al, Eur J Biochem 267, 5421-5426, 2000). Resazurin is reduced to the fluorescent resorufin by cellular dehydrogenase activity, correlating with viable, proliferating cells. Test compounds are dissolved as 20 mM solutions in dimethylsulfoxide (DMSO) and subsequently diluted in semi-logarithmic steps. The cancer cell lines are seeded into 96 well flat bottom plates at respective cell densities in a volume of 200 μl per well to allow continuous proliferation during the experiment. 24 hours after seeding 1 μl each of the compound dilutions is added into each well of the 96 well plate. Wells containing untreated control cells are filled with 200 μl DMEM medium containing 0.5% v:v DMSO. The cells are then incubated with the substances for 72 hours at 37° C. in a humidified atmosphere containing 5% carbon dioxide. To determine the viability of the cells, 20 μl of a Resazurin solution (Sigma; 90 mg/l) are added. After 4 hours incubation at 37° C. the fluorescence is measured at an extinction of 544 nm and an emission of 590 nm. For the calculation of the cell viability the emission value from untreated cells is set as 100% viability and the emission rates of treated cells are set in relation to the values of untreated cells. Viabilities are expressed as % values. The corresponding pIC50 values of the compounds for cytotoxic activity are determined from the concentration-effect curves by means of non-linear regression.

[2] = Cellular cytotoxicity assay (Alamar Blue/Resazurin), HeLa; format: cell-based; conditions: human, HeLa cells, 72 hours incubation, Resazurin, read-out: HeLa Cytotoxicity [pIC50] (converted)
Experimental: as §4

rHDAC3 = target: T3, rHDAC3 (Homo sapiens, UniProt O15379); assay: rHDAC3 enzymatic assay (recombinant FLAG-HDAC3); format: biochemical; conditions: FLAG-HDAC3 from insect cells; 6 μM Ac-NH-GGK(Ac)-AMC, 2 h at 30° C.; read-out: rHDAC3 [pIC50] (converted)
T3 construct: FLAG; made in house; host or cells: baculovirus-infected Sf21 insect cells
From the text: as §1, §2, §3

rHDAC8 = target: T4, rHDAC8 (Homo sapiens, UniProt Q9BY41); assay: rHDAC8 enzymatic assay (recombinant FLAG-HDAC8); format: biochemical; conditions: FLAG-HDAC8 from insect cells; 50 μM Ac-RHK(Ac)K(Ac)-AMC, 3 h at 30° C.; read-out: rHDAC8 [pIC50] (converted)
T4 construct: FLAG; made in house; host or cells: baculovirus-infected Sf21 insect cells
T4 sequence (Q9BY41 1-377): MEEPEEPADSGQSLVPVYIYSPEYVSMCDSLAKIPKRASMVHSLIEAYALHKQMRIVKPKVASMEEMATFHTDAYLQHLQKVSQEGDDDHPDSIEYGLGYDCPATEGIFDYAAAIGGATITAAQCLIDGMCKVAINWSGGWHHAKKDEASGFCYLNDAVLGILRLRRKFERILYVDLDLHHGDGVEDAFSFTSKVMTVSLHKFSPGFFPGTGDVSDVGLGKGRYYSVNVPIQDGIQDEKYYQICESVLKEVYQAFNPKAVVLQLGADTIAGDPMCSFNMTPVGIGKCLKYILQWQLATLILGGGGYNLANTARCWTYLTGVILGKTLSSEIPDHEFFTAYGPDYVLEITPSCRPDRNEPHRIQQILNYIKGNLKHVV
From the text: as §1, §2, §3

T1 sequence (Q13547 whole entry): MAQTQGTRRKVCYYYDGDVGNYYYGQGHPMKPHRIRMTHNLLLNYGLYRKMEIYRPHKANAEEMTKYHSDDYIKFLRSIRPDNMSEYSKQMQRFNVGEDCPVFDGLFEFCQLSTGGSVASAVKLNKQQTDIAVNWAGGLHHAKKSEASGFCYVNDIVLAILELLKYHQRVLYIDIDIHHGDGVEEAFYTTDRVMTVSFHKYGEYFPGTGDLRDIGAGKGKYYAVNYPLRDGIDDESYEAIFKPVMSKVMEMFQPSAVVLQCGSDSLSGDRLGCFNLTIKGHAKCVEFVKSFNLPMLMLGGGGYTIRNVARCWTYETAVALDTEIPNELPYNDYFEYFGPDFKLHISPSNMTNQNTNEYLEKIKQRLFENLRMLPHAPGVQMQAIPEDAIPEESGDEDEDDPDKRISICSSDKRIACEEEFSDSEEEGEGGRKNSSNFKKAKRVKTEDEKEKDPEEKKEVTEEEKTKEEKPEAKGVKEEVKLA
T3 sequence (O15379 whole entry): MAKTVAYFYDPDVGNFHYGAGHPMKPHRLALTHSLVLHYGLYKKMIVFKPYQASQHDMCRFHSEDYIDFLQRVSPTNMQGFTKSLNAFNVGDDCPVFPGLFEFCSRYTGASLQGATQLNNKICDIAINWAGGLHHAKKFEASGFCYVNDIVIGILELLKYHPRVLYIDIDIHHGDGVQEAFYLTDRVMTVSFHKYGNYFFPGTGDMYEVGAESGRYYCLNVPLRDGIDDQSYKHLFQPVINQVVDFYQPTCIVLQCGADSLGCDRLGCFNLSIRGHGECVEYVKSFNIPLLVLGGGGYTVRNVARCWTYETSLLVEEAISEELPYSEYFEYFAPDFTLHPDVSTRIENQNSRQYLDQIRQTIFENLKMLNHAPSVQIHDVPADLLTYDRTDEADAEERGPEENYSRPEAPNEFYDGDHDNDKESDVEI
T3 sequence (Q9Y618 whole entry partner): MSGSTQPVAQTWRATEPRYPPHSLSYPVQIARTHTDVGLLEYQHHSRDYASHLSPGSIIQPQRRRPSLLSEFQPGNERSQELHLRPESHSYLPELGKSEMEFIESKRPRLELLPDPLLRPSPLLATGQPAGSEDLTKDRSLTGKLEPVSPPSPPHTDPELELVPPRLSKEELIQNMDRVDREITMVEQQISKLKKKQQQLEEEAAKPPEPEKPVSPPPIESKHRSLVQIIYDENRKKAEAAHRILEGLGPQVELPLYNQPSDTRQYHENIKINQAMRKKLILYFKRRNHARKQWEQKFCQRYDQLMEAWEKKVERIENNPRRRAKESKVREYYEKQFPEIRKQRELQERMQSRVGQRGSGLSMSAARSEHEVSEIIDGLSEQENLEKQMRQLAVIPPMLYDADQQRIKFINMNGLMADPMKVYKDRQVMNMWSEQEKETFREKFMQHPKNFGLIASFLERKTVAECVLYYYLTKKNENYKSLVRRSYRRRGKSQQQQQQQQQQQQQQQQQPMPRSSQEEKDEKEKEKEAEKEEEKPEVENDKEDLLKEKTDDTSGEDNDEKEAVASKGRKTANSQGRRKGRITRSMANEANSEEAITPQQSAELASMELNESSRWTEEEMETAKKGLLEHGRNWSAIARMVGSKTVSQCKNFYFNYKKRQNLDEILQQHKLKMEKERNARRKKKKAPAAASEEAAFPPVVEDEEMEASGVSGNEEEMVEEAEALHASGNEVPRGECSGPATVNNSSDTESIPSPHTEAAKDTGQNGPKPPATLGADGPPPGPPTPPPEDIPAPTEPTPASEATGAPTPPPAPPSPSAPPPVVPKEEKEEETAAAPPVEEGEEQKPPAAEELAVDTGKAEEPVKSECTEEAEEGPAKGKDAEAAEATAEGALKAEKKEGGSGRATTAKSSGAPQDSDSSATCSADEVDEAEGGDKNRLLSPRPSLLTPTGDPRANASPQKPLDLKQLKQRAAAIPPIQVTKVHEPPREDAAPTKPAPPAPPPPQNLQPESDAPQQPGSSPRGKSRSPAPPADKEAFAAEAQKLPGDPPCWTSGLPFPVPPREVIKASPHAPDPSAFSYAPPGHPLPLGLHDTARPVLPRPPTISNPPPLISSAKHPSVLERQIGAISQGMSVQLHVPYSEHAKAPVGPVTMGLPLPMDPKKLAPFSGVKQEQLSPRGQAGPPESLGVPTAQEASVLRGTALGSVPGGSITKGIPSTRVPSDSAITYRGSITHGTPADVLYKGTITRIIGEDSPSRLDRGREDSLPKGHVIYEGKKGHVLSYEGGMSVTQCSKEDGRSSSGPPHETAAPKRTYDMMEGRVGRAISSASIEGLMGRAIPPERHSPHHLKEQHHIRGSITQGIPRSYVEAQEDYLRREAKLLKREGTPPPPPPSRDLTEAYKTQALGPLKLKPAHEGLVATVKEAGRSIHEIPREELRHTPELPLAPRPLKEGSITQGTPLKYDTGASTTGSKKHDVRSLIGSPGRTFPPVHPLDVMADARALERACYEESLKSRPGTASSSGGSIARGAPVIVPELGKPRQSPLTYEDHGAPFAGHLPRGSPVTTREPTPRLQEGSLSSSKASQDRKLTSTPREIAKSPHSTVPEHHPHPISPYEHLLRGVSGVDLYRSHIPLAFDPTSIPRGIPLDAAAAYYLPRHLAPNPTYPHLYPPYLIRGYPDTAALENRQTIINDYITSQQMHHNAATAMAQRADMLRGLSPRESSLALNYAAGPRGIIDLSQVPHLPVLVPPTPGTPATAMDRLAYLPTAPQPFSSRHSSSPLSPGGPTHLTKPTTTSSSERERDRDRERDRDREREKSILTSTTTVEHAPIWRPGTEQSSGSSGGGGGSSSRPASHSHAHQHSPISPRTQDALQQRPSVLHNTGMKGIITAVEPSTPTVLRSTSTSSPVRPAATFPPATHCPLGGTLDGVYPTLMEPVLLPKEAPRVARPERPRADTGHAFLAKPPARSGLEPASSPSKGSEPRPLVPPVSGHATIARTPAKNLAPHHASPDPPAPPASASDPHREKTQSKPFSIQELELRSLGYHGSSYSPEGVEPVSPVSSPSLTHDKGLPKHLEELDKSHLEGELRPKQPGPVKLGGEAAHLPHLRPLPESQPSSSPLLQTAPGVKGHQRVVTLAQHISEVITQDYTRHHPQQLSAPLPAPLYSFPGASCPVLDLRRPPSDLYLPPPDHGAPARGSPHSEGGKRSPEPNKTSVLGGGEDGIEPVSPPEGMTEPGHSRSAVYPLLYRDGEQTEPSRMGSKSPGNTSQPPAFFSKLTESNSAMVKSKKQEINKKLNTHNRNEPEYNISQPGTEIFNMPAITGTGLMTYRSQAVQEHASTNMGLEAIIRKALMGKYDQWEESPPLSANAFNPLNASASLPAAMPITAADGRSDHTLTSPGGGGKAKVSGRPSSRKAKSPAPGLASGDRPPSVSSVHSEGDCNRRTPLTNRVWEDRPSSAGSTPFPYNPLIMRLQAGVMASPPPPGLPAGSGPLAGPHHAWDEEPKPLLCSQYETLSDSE

melting point: 208 to 210 °C
SMILES: O=C(NO)c1ccc2c(c1)CN(C(=O)c1ccc3ncccc3c1)C2 [Example 28, N-Hydroxy-2-(quinolin-6-ylcarbonyl)isoindoline-5-carboxamide]

melting point: 208 to 210 °C
SMILES: O=C(NO)c1ccc2c(c1)CN(C(=O)c1cc3ccccc3cn1)C2 [Example 29, N-Hydroxy-2-(isoquinolin-3-ylcarbonyl)isoindoline-5-carboxamide]

melting point: 162 to 166 °C
SMILES: O=C(NO)c1ccc2c(c1)CN(C(=O)c1ccc3ccccc3n1)C2 [Example 27, N-Hydroxy-2-(quinolin-2-ylcarbonyl)isoindoline-5-carboxamide]

More lines, now with the values behind:

SMILES: O=C(NO)c1ccc2c(c1)CCN(C(=O)Cc1ccccn1)C2 [Example 2, N-Hydroxy-2-(pyridin-2-ylacetyl)-1,2,3,4-tetrahydroisoquinoline-6-carboxamide hydrochloride]
IC50 (rHDAC1): 10 to 100 µM
IC50 (rHDAC6): 1 to 100 nM
IC50 at 72 h [1]: > 100 µM

SMILES: O=C(NO)c1ccc2c(c1)CCN(C(=O)Cc1ccccn1)C2 [Example 14, N-Hydroxy-2-(pyridin-2-ylacetyl)-1,2,3,4-tetrahydroisoquinoline-6-carboxamide hydrochloride]
IC50 at 72 h [2]: 1 to 100 µM
IC50 (rHDAC3): 10 to 100 µM
IC50 (rHDAC8): 1 to 10 µM

SMILES: CC(=O)N1CCc2ccc(C(=O)NO)cc2C1 [Example 25, 2-Acetyl-N-hydroxy-1,2,3,4-tetrahydroisoquinoline-7-carboxamide]
melting point: 177 to 181 °C

SMILES: Cc1nccn1CCC(=O)N1CCc2ccc(C(=O)NO)cc2C1.Cl
melting point: 63 °C
